Measurements as given in patent US20090270452A1, “USE OF SOLUBLE EPOXIDE HYDROLASE INHIBITORS IN THE TREATMENT OF SMOOTH MUSCLE DISORDERS” (Arete Therapeutics, Inc., priority 2008, published 2009).

Assays:
[1] = test system: rat corpus cavernosual strips; conditions: cited from earlier work; for phenylephrine (PE) induced contraction of the cavernosual strips: preincubation with the inhibitor
[2] = test system: rabbit corpus cavernosum smooth muscle strips; test: Relaxation of isolated rabbit corpus cavernosum smooth muscle strips (pressure transducer); type: cell-based; conditions: 10 minutes
Procedure: A study was performed using freshly isolated rabbit corpus cavernosum smooth muscle strips attached to a pressure transducer in a temperature controlled bath, to evaluate the efficacy of 1-adamantyl-3-(1-(methylsulfonyl)piperidin-4-yl)urea (Compound 1) for the treatment of erectile dysfunction.
The isolated rabbit corpus cavernosum strips were exposed to Compound 1 and/or 14,15-epoxyeicosatrienoic acid (14,15-EET) at 1 μM or 10 μM concentrations for 10 minutes. The relaxation of each strip was measured by pressure transduction. The percent relaxation was determined relative to a control strip incubated with sodium nitroprusside (SNP) of the formula Na2[Fe(CN)5NO].2H2O, SNP is a compound that serves as a source of nitric oxide, a potent peripheral vasodilator. All experimental conditions were done in duplicate.

[3] = test system: rat mesenteric arteries; test: Vasorelaxation of rat mesenteric arteries pre-contracted with U46619 or high KCl (myograph); type: cell-based
Procedure: Additional experiments were performed wherein the pre-contraction of the mesenteric arteries was induced by pre-incubation with either 0.1-1.0 μM U46619 (9,11-dideoxy-9α,11α-methanoepoxy Prostaglandin F2α, […]). The pre-contracted arteries were exposed to 2 μM, 10 μM, 50 μM, 100 μM, 500 μM or 1000 μM of Compound 2 and the level of relaxation was measured by myograph. […] The amount of relaxation induced by Compound 2 was consistent between the vessels pre-contracted by U46619 and high KCl.

[4] = test system: rat mesenteric arteries; test: Direct vasorelaxation of rat mesenteric arteries with intact or denuded endothelium (wired myograph); type: cell-based
Procedure: The efficacy of the 1-(1-nicotinoylpiperidin-4-yl)-3-(4-(trifluoromethoxy)phenyl)urea (Compound 2) to directly effect vasorelaxation of rat mesenteric arteries was examined. Rat mesenteric arteries with intact and denuded endothelium were isolated under microscope. Both intact and denuded arteries were exposed to various concentrations of Compound 2 (2 μM, 10 μM, 50 μM, 100 μM, 500 μM or 1000 μM) and the amount of relaxation was measured by a wired myograph.

[5] = test system: rat arteries; test: Ach-induced relaxation of isolated arteries from angiotensin II infused rats after in vitro pre-incubation (myograph); type: cell-based; conditions: arteries of ANG II infused rats, pre-incubation with 100 μM compound for 90 minutes; 2% without compound
Procedure: The efficacy of 1-(1-nicotinoylpiperidin-4-yl)-3-(4-(trifluoromethoxy)phenyl)urea (Compound 2) and 1-adamantyl-3-(1-acetylpiperidin-4-yl)urea (Compound 3) to effect vasorelaxation of rat arteries in vitro and in vivo was examined. Rats were infused with angiotensin II (ANG II) for 4 weeks resulting in a reduced vasorelaxation response to acetylcholine (Ach), a neurotransmitter known to cause endothelium-dependent vasodilation of arteries. Ach-induced relaxation was measured by myograph.

[6] = test system: rat arteries; test: Ach-induced relaxation of arteries from angiotensin II rats co-treated in vivo (myograph); conditions: ANG II rats
Procedure: Additionally, in vivo attenuation of the effects of ANG II by Compound 2 or Compound 3 was examined. Rats were administered ANG II for 2 weeks and co-administered ANG II and either 10 mg of Compound 2 once a day by oral gavage or 30 mg of Compound 3 per day dose in drinking water for 2 weeks. Ach induced relaxation was measured by myograph.

[7] = test system: arteries from SHR; test: Aortic relaxation of isolated arteries from spontaneously hypertensive rats (SHR) to Ach or SNP after pre-incubation (myograph); type: cell-based, rat; conditions: pre-incubation with 100 μM compound for 90 minutes

Compound: CCCCCCCCCCCCNC(=O)NC1CCCCC1 [1-cyclodexy-3-dodecyl-urea]
- phenylephrine (PE) induced contraction of the cavernosual strips [1]: attenuated

Compound: CCCCCC1OC1CC=CCC=CCC=CCCCC(=O)O (stereo not shown) [14,15-EET, 14,15-epoxyeicosatrienoic acid, reference compound]
- relaxation of corpus cavernosum strip ([2]; 14,15-EET alone, 1 μM): no effect
- relaxation of corpus cavernosum strip ([2]; 14,15-EET alone, 10 μM, in one of the two experiments): 7%
- EET-induced vasorelaxation in vessels precontracted with high KCl ([3]; pre-contracted with high KCl (100 mM per FIG. 3A)): completely blocked

Compound: CS(=O)(=O)N1CCC(NC(=O)NC23CC4CC(CC(C4)C2)C3)CC1 [Compound 1, 1-adamantyl-3-(1-(methylsulfonyl)piperidin-4-yl)urea]
- percent relaxation of corpus cavernosum strip ([2]; 1 μM of both Compound 1 and 14,15-EET, relative to SNP control strip): 15%
- percent relaxation of corpus cavernosum strip ([2]; 10 μM of both Compound 1 and 14,15-EET, relative to SNP control strip): 22%
- relaxation of corpus cavernosum strip ([2]; Compound 1 alone, 1 μM or 10 μM, relative to SNP control strip): did not induce relaxation

Compound: O=C(Nc1ccc(OC(F)(F)F)cc1)NC1CCN(C(=O)c2cccnc2)CC1 [Compound 2, 1-(1-nicotinoylpiperidin-4-yl)-3-(4-(trifluoromethoxy)phenyl)urea]
- percent relaxation of mesenteric arteries ([4]; 10 μM of compound): 5%
- percent relaxation of mesenteric arteries ([4]; 100 μM of compound): 60%
- relaxation of pre-contracted mesenteric arteries ([3]; 2-1000 μM, pre-contracted by 0.1-1.0 μM U46619 or 127 mM KCl, consistent between both): dose dependent effect
- percent relaxation with 100 nM Ach [5]: 30%
- response to Ach-induced relaxation after in vivo co-administration ([6]; 10 mg once a day by oral gavage for 2 weeks): significantly improved dose dependent response to Ach

Compound: CC(=O)N1CCC(NC(=O)NC23CC4CC(CC(C4)C2)C3)CC1 [Compound 3, 1-adamantyl-3-(1-acetylpiperidin-4-yl)urea]
- percent relaxation with 100 nM Ach [5]: 70%
- response to Ach-induced relaxation after in vivo co-administration ([6]; 30 mg per day dose in drinking water for 2 weeks): significantly improved dose dependent response to Ach
- percent relaxation induced by 10 μM Ach ([7]; vehicle 65%): 90%
- percent relaxation induced by 100 nM SNP ([7]; vehicle 70%): 95%

Compound: CCCCc1ccc(N=CN)c(C)c1 [N′-(4-dutyl-2-methyl-phenyl)-foramidine]
- phenylephrine (PE) induced contraction of the cavernosual strips [1]: attenuated

Compound: epoxyeicosatrienoic acids [EETs]
- EC50 ([1]; normal, old and diabetic rat corpus cavernosual strips, read-out: apparent EC50 of relaxation): 10 nM
- Emax of relaxation ([1]; normal, old and diabetic rat strips, depending on the system): 30-70%
